Tests used:
[1] = target: T1, human vasopressin V1b receptor (Homo sapiens, UniProt P47901); experiment: Vasopressin V1b receptor binding assay (3H-AVP displacement, CHO-K1 membranes)
T1 construct: expressed in transfected cells; host or cells: CHO-K1 (cell line hV1b_3H2_CHO), membranes
T1 sequence (P47901 1-424): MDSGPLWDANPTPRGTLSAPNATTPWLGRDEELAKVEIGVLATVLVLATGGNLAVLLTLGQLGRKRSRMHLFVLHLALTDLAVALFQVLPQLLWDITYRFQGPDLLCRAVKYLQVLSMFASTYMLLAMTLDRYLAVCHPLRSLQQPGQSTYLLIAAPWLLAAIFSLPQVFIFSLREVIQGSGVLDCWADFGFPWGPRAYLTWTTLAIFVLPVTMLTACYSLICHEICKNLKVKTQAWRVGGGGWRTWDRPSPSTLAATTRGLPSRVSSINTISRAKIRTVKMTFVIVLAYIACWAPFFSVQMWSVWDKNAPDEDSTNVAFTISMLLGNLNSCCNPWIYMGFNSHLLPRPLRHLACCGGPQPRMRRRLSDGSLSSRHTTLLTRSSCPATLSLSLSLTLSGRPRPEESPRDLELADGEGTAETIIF
Experimental: 1. Vasopressin V1b Receptor Binding Assay:
The substance concentration was further diluted 1:5 in the assay mixture (2% DMSO in the mixture).
All determinations were carried out as triplicate determinations.

[2] = target: T2, recombinant human oxytocin receptors (Homo sapiens, UniProt P30559); experiment: Oxytocin receptor binding assay (3H-oxytocin, HEK-293 cells); details: selectivity quotient, human OT vs human V1b
T2 construct: expressed in transfected cells; host or cells: HEK-293, transient expression; lysed and homogenized cells
T2 sequence (P30559 1-389): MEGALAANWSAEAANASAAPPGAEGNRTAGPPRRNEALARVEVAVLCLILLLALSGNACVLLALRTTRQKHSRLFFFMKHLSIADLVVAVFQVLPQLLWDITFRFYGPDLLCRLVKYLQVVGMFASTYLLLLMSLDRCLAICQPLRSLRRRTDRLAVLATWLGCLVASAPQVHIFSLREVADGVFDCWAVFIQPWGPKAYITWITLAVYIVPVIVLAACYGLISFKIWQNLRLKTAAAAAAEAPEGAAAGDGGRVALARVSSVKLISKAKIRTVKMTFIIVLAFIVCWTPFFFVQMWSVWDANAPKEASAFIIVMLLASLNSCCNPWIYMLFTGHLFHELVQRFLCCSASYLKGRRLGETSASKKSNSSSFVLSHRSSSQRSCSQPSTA
Experimental: The residue was taken up in ice-cold lysis buffer (50 mM Tris-HCl, 10% glycerol, pH 7.4 and Roche complete protease inhibitor) and subjected to an osmotic shock at 4° C. for 20 minutes. The lyzed cells were then centrifuged at 750×g at 4° C. for 20 minutes, the residue was taken up in incubation buffer, and aliquots of 10^7 cells/ml were prepared. The aliquots were frozen at −80° C. until used.
On the day of the experiment, the cells were thawed, diluted with incubation buffer and homogenized using a Multipette Combitip (Eppendorf, Hamburg). […] Triplicate determinations were set up. Bound and free radioligand were separated by filtration under vacuum with Whatman GF/B glass fiber filters with the aid of a Skatron cell harvester 7000. The bound radioactivity was determined by liquid scintillation measurement in a Tricarb Beta counter, model 2000 or 2200CA (Packard).

[3] = target: human vasopressin V1a receptor (Homo sapiens, UniProt P37288); experiment: Vasopressin V1a receptor binding assay (125I-AVP displacement, CHO-K1 membranes); details: selectivity quotient, human V1a vs human V1b
Chain of human vasopressin V1a receptor (P37288 whole entry): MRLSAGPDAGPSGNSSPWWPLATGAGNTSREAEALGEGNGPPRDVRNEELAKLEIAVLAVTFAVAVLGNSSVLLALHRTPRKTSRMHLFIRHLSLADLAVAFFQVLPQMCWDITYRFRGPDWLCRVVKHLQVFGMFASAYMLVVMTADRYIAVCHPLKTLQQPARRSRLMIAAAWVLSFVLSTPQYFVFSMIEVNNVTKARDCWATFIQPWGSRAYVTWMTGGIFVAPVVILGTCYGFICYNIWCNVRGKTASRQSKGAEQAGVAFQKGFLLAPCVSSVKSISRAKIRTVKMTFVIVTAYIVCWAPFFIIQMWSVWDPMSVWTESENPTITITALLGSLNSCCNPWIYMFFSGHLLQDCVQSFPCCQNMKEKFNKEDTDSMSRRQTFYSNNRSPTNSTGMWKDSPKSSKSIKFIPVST

## CCOc1ncccc1C1(OC(=O)c2ccc(N3CCN(C)CC3)cc2)C(=O)N(S(=O)(=O)c2ccc(OC)cc2)c2ccc(C#N)cc21 (stereo not drawn) [Example 2, 5-Cyano-3-(2-ethoxypyridin-3-yl)-1-(4-methoxyphenylsulfonyl)-2-oxo-2,3-dihydro-1H-indol-3-yl-4-(4-methylpiperazin-1-yl)benzoate]
[1]
  Ki: 1 to 10 nM
[2]
  Ki(h-OT)/Ki(h-V1b)*: ++ (25-75)
[3]
  Ki(h-V1a)/Ki(h-V1b)*: +++ (>75)

## CCOc1ncccc1C1(OC(=O)c2ccc(N3CCN(C)CC3)cc2)C(=O)N(S(=O)(=O)c2ccc(OC)cc2OC)c2ccc(C#N)cc21 (stereo not drawn) [Example 3, 5-Cyano-1-(2,4-dimethoxyphenylsulfonyl)-3-(2-ethoxypyridin-3-yl)-2-oxo-2,3-dihydro-1H-indol-3-yl 4-(4-methylpiperazin-1-yl)benzoate]
[1]
  Ki: 1 to 10 nM
[2]
  Ki(h-OT)/Ki(h-V1b)*: + (10-<25)
[3]
  Ki(h-V1a)/Ki(h-V1b)*: +++ (>75)

## CCOc1ncccc1C1(NC(=O)c2ccc(N3CCN(C)CC3)cc2)C(=O)N(S(=O)(=O)c2ccc(OC)cc2)c2ccc(C#N)cc21 (stereo not drawn) [Example 4, N-[5-Cyano-3-(2-ethoxypyridin-3-yl)-1-(4-methoxyphenylsulfonyl)-2-oxo-2,3-dihydro-1H-indol-3-yl]-4-(4-methylpiperazin-1-yl)benzamide]
[1]
  Ki: 1 to 10 nM
[2]
  Ki(h-OT)/Ki(h-V1b)*: ++ (25-75)
[3]
  Ki(h-V1a)/Ki(h-V1b)*: +++ (>75)

## CCOc1ncccc1C1(NC(=O)c2ccc(N3CCN(CC)CC3)cc2)C(=O)N(S(=O)(=O)c2ccc(OC)cc2)c2ccc(C#N)cc21 (stereo not drawn) [Example 5, N-[5-Cyano-3-(2-ethoxypyridin-3-yl)-1-(4-methoxyphenylsulfonyl)-2-oxo-2,3-dihydro-1H-indol-3-yl]-4-(4-ethylpiperazin-1-yl)benzamide]
[1]
  Ki: 1 to 10 nM
[2]
  Ki(h-OT)/Ki(h-V1b)*: +++ (>75)
[3]
  Ki(h-V1a)/Ki(h-V1b)*: +++ (>75)

## CCOc1ncccc1C1(NC(=O)c2ccc(N3CCN(C)CC3)cc2)C(=O)N(S(=O)(=O)c2ccc(OC)cc2OC)c2ccc(C#N)cc21 (stereo not drawn) [Example 6, N-[5-Cyano-1-(2,4-dimethoxyphenylsulfonyl)-3-(2-ethoxypyridin-3-yl)-2-oxo-2,3-dihydro-1H-indol-3-yl]-4-(4-methylpiperazin-1-yl)benzamide]
[1]
  Ki: 1 to 10 nM
[2]
  Ki(h-OT)/Ki(h-V1b)*: ++ (25-75)
[3]
  Ki(h-V1a)/Ki(h-V1b)*: +++ (>75)

## CCOc1ncccc1C1(NC(=O)c2ccc(N3CCN(CC)CC3)cc2)C(=O)N(S(=O)(=O)c2ccc(OC)cc2OC)c2ccc(C#N)cc21 (stereo not drawn) [Example 7, N-[5-Cyano-1-(2,4-dimethoxyphenylsulfonyl)-3-(2-ethoxypyridin-3-yl)-2-oxo-2,3-dihydro-1H-indol-3-yl]-4-(4-ethylpiperazin-1-yl)benzamide]
[1]
  Ki: 1 to 10 nM
[2]
  Ki(h-OT)/Ki(h-V1b)*: ++ (25-75)
[3]
  Ki(h-V1a)/Ki(h-V1b)*: +++ (>75)

## CCOc1ncccc1C1(NCc2ccc(N3CCN(C)CC3)cc2)C(=O)N(S(=O)(=O)c2ccc(OC)cc2)c2cc(Cl)c(F)cc21 (stereo not drawn) [Example 13, 6-Chloro-3-(2-ethoxypyridin-3-yl)-5-fluoro-1-(4-methoxyphenylsulfonyl)-3-[4-(4-methylpiperazin-1-yl)benzylamino]-1,3-dihydroindol-2-one]
[1]
  Ki: 10 to 100 nM
[2]
  Ki(h-OT)/Ki(h-V1b)*: ++ (25-75)
[3]
  Ki(h-V1a)/Ki(h-V1b)*: + (10-<25)

## CCOc1ncccc1C1(NCc2ccc(N3CCN(C)CC3)cc2)C(=O)N(S(=O)(=O)c2ccc(OC)cc2)c2cc(F)c(F)cc21 (stereo not drawn) [Example 14, 5,6-Difluoro-3-(2-ethoxypyridin-3-yl)-1-(4-methoxyphenylsulfonyl)-3-[4-(4-methylpiperazin-1-yl)benzylamino]-1,3-dihydroindol-2-one]
[1]
  Ki: 1 to 10 nM
[2]
  Ki(h-OT)/Ki(h-V1b)*: ++ (25-75)
[3]
  Ki(h-V1a)/Ki(h-V1b)*: + (10-<25)

## CCOc1ncccc1C1(NCc2ccc(N3CCN(C)CC3)cc2)C(=O)N(S(=O)(=O)c2ccc(OC)cc2)c2ccc(F)cc21 (stereo not drawn) [Example 15, 3-(2-Ethoxypyridin-3-yl)-5-fluoro-1-(4-methoxyphenylsulfonyl)-3-[4-(4-methylpiperazin-1-yl)benzylamino]-1,3-dihydroindol-2-one]
[1]
  Ki: 1 to 10 nM
[2]
  Ki(h-OT)/Ki(h-V1b)*: +++ (>75)
[3]
  Ki(h-V1a)/Ki(h-V1b)*: ++ (25-75)

## CCOc1ncccc1C1(NCc2ccc(N3CCN(C)CC3)cc2)C(=O)N(S(=O)(=O)c2ccc(OC)cc2)c2ccc(C#N)cc21 (stereo not drawn) [Example 16, 3-(2-Ethoxypyridin-3-yl)-1-(4-methoxyphenylsulfonyl)-3-[4-(4-methylpiperazin-1-yl)-benzylamino]-2-oxo-2,3-dihydro-1H-indole-5-carbonitrile]
[1]
  Ki: 1 to 10 nM
[2]
  Ki(h-OT)/Ki(h-V1b)*: +++ (>75)
[3]
  Ki(h-V1a)/Ki(h-V1b)*: +++ (>75)

## CCOc1ncccc1C1(NCc2ccc(N3CCN(C)CC3)cc2)C(=O)N(S(=O)(=O)c2ccc(OC)cc2OC)c2ccc(C#N)cc21 (stereo not drawn) [Example 17, 1-(2,4-Dimethoxyphenylsulfonyl)-3-(2-ethoxypyridin-3-yl)-3-[4-(4-methylpiperazin-1-yl)-benzylamino]-2-oxo-2,3-dihydro-1H-indole-5-carbonitrile]
[1]
  Ki: 1 to 10 nM
[2]
  Ki(h-OT)/Ki(h-V1b)*: + (10-<25)
[3]
  Ki(h-V1a)/Ki(h-V1b)*: + (10-<25)

## CCOc1ncccc1C1(NCc2ccc(N3CCN(C)CC3)cc2)C(=O)N(S(=O)(=O)c2ccccc2OC)c2ccc(C#N)cc21 (stereo not drawn) [Example 24, 3-(2-Ethoxypyridin-3-yl)-1-(2-methoxyphenylsulfonyl)-3-[4-(4-methylpiperazin-1-yl)-benzylamino]-2-oxo-2,3-dihydro-1H-indole-5-carbonitrile]
[1]
  Ki: 1 to 10 nM
[2]
  Ki(h-OT)/Ki(h-V1b)*: + (10-<25)
[3]
  Ki(h-V1a)/Ki(h-V1b)*: +++ (>75)

## CCOc1ncccc1C1(NCc2ccc(N3CCN(C)CC3)cc2)C(=O)N(S(=O)(=O)c2cccc(OC)c2)c2ccc(C#N)cc21 (stereo not drawn) [Example 25, 3-(2-Ethoxypyridin-3-yl)-1-(3-methoxyphenylsulfonyl)-3-[4-(4-methylpiperazin-1-yl)-benzylamino]-2-oxo-2,3-dihydro-1H-indole-5-carbonitrile]
[1]
  Ki: 10 to 100 nM
[2]
  Ki(h-OT)/Ki(h-V1b)*: + (10-<25)
[3]
  Ki(h-V1a)/Ki(h-V1b)*: ++ (25-75)

## CCOc1ncccc1C1(NCc2ccc(N3CCN(C)CC3)cc2)C(=O)N(S(=O)(=O)c2ccc(Cl)cc2)c2ccc(C#N)cc21 (stereo not drawn) [Example 26, 1-(4-Chlorophenylsulfonyl)-3-(2-ethoxypyridin-3-yl)-3-[4-(4-methylpiperazin-1-yl)-benzylamino]-2-oxo-2,3-dihydro-1H-indole-5-carbonitrile]
[1]
  Ki: 10 to 100 nM
[2]
  Ki(h-OT)/Ki(h-V1b)*: +++ (>75)
[3]
  Ki(h-V1a)/Ki(h-V1b)*: ++ (25-75)

## CCOc1ncccc1C1(NCc2ccc(N3CCN(C)CC3)cc2)C(=O)N(S(=O)(=O)c2ccccc2)c2ccc(C#N)cc21 (stereo not drawn) [Example 27, 1-Phenylsulfonyl-3-(2-ethoxypyridin-3-yl)-3-[4-(4-methylpiperazin-1-yl)benzylamino]-2-oxo-2,3-dihydro-1H-indole-5-carbonitrile]
[1]
  Ki: 10 to 100 nM
[2]
  Ki(h-OT)/Ki(h-V1b)*: +++ (>75)
[3]
  Ki(h-V1a)/Ki(h-V1b)*: + (10-<25)

## CCOc1ncccc1C1(NCc2ccc(N3CCN(C)CC3)cc2)C(=O)N(S(=O)(=O)c2ccc(C#N)cc2)c2ccc(C#N)cc21 (stereo not drawn) [Example 28, 1-(4-Cyanophenylsulfonyl)-3-(2-ethoxypyridin-3-yl)-3-[4-(4-methylpiperazin-1-yl)-benzylamino]-2-oxo-2,3-dihydro-1H-indole-5-carbonitrile]
[1]
  Ki: 10 to 100 nM
[2]
  Ki(h-OT)/Ki(h-V1b)*: +++ (>75)
[3]
  Ki(h-V1a)/Ki(h-V1b)*: + (10-<25)

## CCOc1ncccc1C1(NCc2ccc(N3CCNCC3)cc2)C(=O)N(S(=O)(=O)c2ccc(OC)cc2OC)c2ccc(C#N)cc21 (stereo not drawn) [Example 29, 1-(2,4-Dimethoxyphenylsulfonyl)-3-(2-ethoxypyridin-3-yl)-2-oxo-3-(4-piperazin-1-yl-benzylamino)-2,3-dihydro-1H-indole-5-carbonitrile]
[1]
  Ki: 1 to 10 nM
[2]
  Ki(h-OT)/Ki(h-V1b)*: + (10-<25)
[3]
  Ki(h-V1a)/Ki(h-V1b)*: ++ (25-75)
